Assay results reported in patent publication US8952042B2, “FXR (NR1H4) binding and activity modulating compounds” (Phenex Pharmaceuticals AG, priority 2009, dated 2015).

Legend:
[1] = Plasma levels in mice after single dose gavage 5 mg/kg; type: in vivo; details: C57/bl6 mice, FIG. 1c, 5 mg/kg gavage
Experimental: Data represent the mean of 3 individual mouse plasma measurements.
(§1) Compounds were applied perorally by gavage at 5 mg/kg each and by i.v. Injection at 1 mg/kg each to male 12 weeks old C57BI/6J or Sprague Dawley rats and plasma concentrations of the test items were determined by LC-MS/MS after time points as indicated. In the case of Cynomolgus monkeys ([…]), the dose was adjusted to 12 mg/kg p.o., no i.v. injection was given (FIG. 1a, 1b and Table 2).
A solution of 2.5 mg/mL of each test item was produced by diluting them in the vehicle, 0.5% Hydroxypropyl-Methylcellulose (w/v) in 20 mM phosphate buffered saline pH 7.4. The solutions were stirred overnight at room temperature and heated to 40° C. for 10 minutes, resulting in fully homogenous suspension. The application was performed by administrating the solution perorally to the mice, with an application volume of 5 mL/kg. For each time point three mice or rats were used. In case of the Cynomolgus monkeys blood samples were obtained by repeated vein puncture. Blood samples were treated with L1-heparin during collection procedure and stored on ice until centrifugation at 645 g (5 min, 4° C.). Plasma was harvested and kept at −20° C. until being assayed. […] An aliquot of the particle-free supernatant was transferred to 200 μL sampler vials and subsequently subjected to LC MS/MS for quantification.

[2] = molecular target: T1, FXR ligand binding domain (Homo sapiens, UniProt Q96RI1); assay: Mammalian One Hybrid (M1H) Gal4 reporter assay in HEK293 cells; type: cell-based; details: potency range
T1 construct: expressed in transfected cells; host or cells: HEK293 cells (DSMZ), transient transfection of pCMV-BD-FXR-LBD
T1 sequence (Q96RI1 187-472 isoform Q96RI1-2): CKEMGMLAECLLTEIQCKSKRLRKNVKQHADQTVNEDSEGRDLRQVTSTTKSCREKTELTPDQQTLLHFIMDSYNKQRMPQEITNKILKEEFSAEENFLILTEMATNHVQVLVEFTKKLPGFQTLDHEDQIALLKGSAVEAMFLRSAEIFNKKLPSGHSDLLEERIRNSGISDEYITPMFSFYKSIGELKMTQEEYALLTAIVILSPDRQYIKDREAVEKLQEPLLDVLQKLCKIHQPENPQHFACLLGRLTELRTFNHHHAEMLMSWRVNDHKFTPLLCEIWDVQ
Experimental: Determination of a ligand mediated Gal4 promoter driven transactivation to quantify ligand binding mediated activation of FXR was performed as follows: The cDNA part encoding the FXR ligand binding domain was cloned into vector pCMV-BD (Stratagene) as a fusion to the yeast GAL4 DNA binding domain under the control of the CMV promoter. The amino acid boundaries of the ligand binding domain were amino acids 187-472 of Database entry NM_005123 (RefSeq). The plasmid pFR-Luc (Stratagene) was used as the reporter plasmid, containing a synthetic promoter with five tandem repeats of the yeast GAL4 binding sites, driving the expression of the Photinus pyralis (American firefly) luciferase gene as the reporter gene. In order to improve experimental accuracy the plasmid pRL-CMV (Promega) was cotransfected. pRL-CMV contains the constitutive CMV promoter, controlling the expression of the Renilla reniformis luciferase. All Gal4 reporter gene assays were done in HEK293 cells (obtained from DSMZ, Braunschweig, Germany) grown in MEM with L-Glutamine and Earle's BSS supplemented with 10% fetal bovine serum, 0.1 mM nonessential amino acids, 1 mM sodium pyruvate, and 100 units Penicillin/[…] per mL at 37° C. in 5% CO2. Medium and supplements were obtained from Invitrogen. For the assay, […] were plated per well in 96 well plates in 100 μL per well MEM without Phenol Red and L-Glutamine and with Earle's BSS supplemented with 10% charcoal/dextran treated FBS (HyClone, South Logan, Utah), 0.1 mM nonessential amino acids, 2 mM glutamine, 1 mM sodium pyruvate, and 100 units Penicillin/[…] per mL, incubated at 37° C. in 5% CO2. The following day the cells were >90% confluence. Medium was removed and cells were transiently transfected using 20 μL per well of a OptiMEM—polyethylene-imine-based transfection-reagent (OptiMEM, Invitrogen; Polyethyleneimine, Aldrich Cat No. 40, 827-7) including the three plasmids described above. MEM with the same composition as used for plating cells was added 2-4 h after addition of transfection mixture. Then compound stocks, prediluted in MEM were added (final vehicle concentration not exceeding 0.1%). Cells were incubated for additional 16 h before firefly and renilla luciferase activities were measured sequentially in the same cell extract using a Dual-Light-Luciferase-Assay system (Dyer et al., Anal. Biochem. 2000, 282, 158-161). All experiments were done in triplicates.

[3] = Pharmacokinetics in rat after intravenous administration 1 mg/kg; type: in vivo, Male Sprague Dawley Rat; details: for plasma levels as compared to GW4064: Male Sprague Dawley Rat, Table 3; for AUC(0-inf) / MRT last / Tmax / Vd / half-life / concentration at 0.083 hr / concentration at 0.25 hr / concentration at 0.5 hr / concentration at 1 hr / concentration at 2 hr / concentration at 4 hr / Cmax / AUC(0-t): male, Sprague Dawley, plasma; for AUC(0-inf) / MRT last / Tmax / Vd / half-life / concentration at 0.083 hr / concentration at 0.25 hr / concentration at 0.5 hr / concentration at 1 hr / concentration at 2 hr / concentration at 4 hr / AUC(0-t): iv; for AUC(0-inf) / MRT last / Tmax / Vd / half-life / concentration at 0.083 hr / concentration at 0.25 hr / concentration at 0.5 hr / concentration at 1 hr / concentration at 2 hr / concentration at 4 hr / Cmax / AUC(0-t) / AUC Extrapolated / CI: rat; for AUC(0-inf) / MRT last / Tmax / Vd / half-life / concentration at 0.083 hr / concentration at 0.25 hr / concentration at 0.5 hr / concentration at 1 hr / concentration at 2 hr / concentration at 4 hr / Cmax / AUC Extrapolated / CI: 1 mg/kg i.v.; for concentration at 0.5 hr: 0.50 hr; for Cmax: footnote: Co for Intravenous; for AUC(0-t): 1 mg/kg, read-out: #AUC(0-8)
Experimental: as §1
(§2) A solution of 2.5 mg/mL of each test item was produced by diluting them in the vehicle, 0.5% Hydroxypropyl-Methylcellulose (w/v) in 20 mM phosphate buffered saline pH 7.4. The solutions were stirred overnight at room temperature and heated to 40° C. for 10 minutes, resulting in fully homogenous suspension. The application was performed by administrating the solution perorally to the mice, with an application volume of 5 mL/kg. For each time point three mice or rats were used. In case of the Cynomolgus monkeys blood samples were obtained by repeated vein puncture. Blood samples were treated with L1-heparin during collection procedure and stored on ice until centrifugation at 645 g (5 min, 4° C.). Plasma was harvested and kept at −20° C. until being assayed. To 50 μL of plasma sample […] acetonitrile containing an internal standard was added. Samples were vigorously shaken and centrifuged for 10 minutes at 6000 g and 20° C. An aliquot of the particle-free supernatant was transferred to 200 μL sampler vials and subsequently subjected to LC MS/MS for quantification.

[4] = Pharmacokinetics in rat after oral administration 5 mg/kg; type: in vivo, Male Sprague Dawley Rat; details: for AUC(0-inf) / Cmax / MRT last / Tmax / half-life / bioavailability / AUC(0-t): male, Sprague Dawley, plasma; for AUC(0-inf) / Cmax / MRT last / Tmax / half-life / AUC(0-t) / AUC Extrapolated / CI / Vd: oral 5 mg/kg; for bioavailability: oral 5 mg/kg vs i.v. 1 mg/kg, read-out: Absolute Bioavailability; for AUC(0-t): read-out: AUC(0-8)
Experimental: as §1, §2

SMILES | plasma levels as compared to GW4064 [1] | EC50 [2] | plasma levels as compared to GW4064 [3] | AUC(0-inf) [3] | MRT last [3] | Tmax [3] | Vd [3] | half-life [3] | concentration at 0.083 hr [3] | concentration at 0.25 hr [3] | concentration at 0.5 hr [3] | concentration at 1 hr [3] | concentration at 2 hr [3] | concentration at 4 hr [3] | Cmax [3] | AUC(0-t) [3] | AUC Extrapolated [3] | CI [3] | AUC(0-inf) [4] | Cmax [4] | other results
O=C(O)c1ccc(C2CC2c2ccc(OCc3c(-c4c(Cl)cccc4Cl)noc3C3CC3)cc2Cl)cc1 (racemic) [Example 12, 4-(2-(2-chloro-4-((5-cyclopropyl-3-(2,6-dichlorophenyl)isoxazol-4-yl)methoxy)phenyl)cyclopropyl)benzoic acid] | substantially higher | 10 to 100 nM | substantially higher | 440 ng·h/mL | 46.8 min | 4.98 min | 4.82 L/kg | 88.2 min | 661 ng/mL | 359 ng/mL | 174 ng/mL | 84.6 ng/mL | 37.7 ng/mL | 19.2 ng/mL | 895 ng/mL | 399 ng·h/mL | 9.28% | 37.8772 mL/min/kg | 681 ng·h/mL | 210 ng/mL | MRT last [4]: 145 min; Tmax [4]: 30 min; half-life [4]: 167 min; bioavailability [4]: 30.9%; AUC(0-t) [4]: 570 ng·h/mL; AUC Extrapolated [4]: 16.32%; CI [4]: 122.39 mL/min/kg; Vd [4]: 29.44442 L/kg
O=C(O)c1cccc(C2CC2c2ccc(OCc3c(-c4c(Cl)cccc4Cl)noc3C3CC3)cc2Cl)c1 (racemic) [Example 4, 3-(2-(2-chloro-4-((5-cyclopropyl-3-(2,6-dichlorophenyl)isoxazol-4-yl)methoxy)phenyl)-cyclopropyl)benzoic acid] | substantially higher | 10 to 100 nM | substantially higher | 923 ng·h/mL | 49.8 min | 4.98 min | 1.79 L/kg | 68.4 min | 1190 ng/mL | 749 ng/mL | 451 ng/mL | 202 ng/mL | 78.9 ng/mL | 44.5 ng/mL | 1500 ng/mL | 850 ng·h/mL | 7.94% | 18.0508 mL/min/kg | 406 ng·h/mL | 93.1 ng/mL | MRT last [4]: 178 min; Tmax [4]: 30 min; half-life [4]: 245 min; bioavailability [4]: 8.8%; AUC(0-t) [4]: 287 ng·h/mL; AUC Extrapolated [4]: 33.93%; CI [4]: 205.0343 mL/min/kg; Vd [4]: 72.49139 L/kg
